Data taken from patent US20090082285A1, “Adiponectin expression promoter” (SAN-EI GEN F.F.I., INC., priority 2003, published 2009).

System: adiponectin mRNA in epididymis adipose cells
Test: Adiponectin mRNA level in isolated epididymis adipose cells (RT-PCR, gel densitometry)
Assay type: cell-based, Wistar male rat
Conditions: for mRNA level: adiponectin mRNA, control (DMSO) defined as 1, cultured 24 hours at 37° C.; for adiponectin mRNA level in adipose tissue (result in words): conclusion from FIG. 1 and Table 5, 100 μM or 250 μM vs DMSO control
Experimental: A Wistar male rat (body weight of 160 g) was sacrificed and its epididymis adipose tissues were excised. The epididymis adipose tissues were placed in 0.5% bovine serum albumin (BSA)/30 mM HEPES/200 nM adenosine/Krebs Ringer bicarbonate buffer(BSA-KRBH) containing 1176 units/mL of collagenase (Sigma, type II), and allowed to stand at 37° C. for 90 minutes (hereunder, 0.5% BSA/30 mM HEPES/200 nM adenosine/Krebs Ringer bicarbonate buffer is referred to as BSA-KRBH). Adipose cells were isolated from the connective tissue by the above-described operation. The isolated adipose cells were then washed with BSA-KRBH four times, and the thus-obtained adipose cells were suspended in a BSA-KRBH culture medium.
Subsequently, to the thus-obtained suspension, a solution prepared by dissolving cyanidin (Cy; manufactured by Funakoshi Co., Ltd.) or cyanidin 3-O-β-D-glucoside (hereinafter, referred to as “cyanidin 3-glucoside”)(C3G; manufactured by Funakoshi Co., Ltd.) in DMSO was added in such a manner that the final concentration of cyanidin or cyanidin 3-glucoside was 100 μM or 250 μM. The resulting solutions were cultured under 5% CO2 at 37° C. for 24 hours, and the adipose cells were then collected.
Total RNAs were extracted from the thus-obtained adipose cell using an RNA extracting reagent (ISOGEN, manufactured by Nippon Gene Co., Ltd.) by following the instruction manual (http://www.nippongene.jp/pages/products/extraction/isogen/genol. html). Using the total RNAs as a template, a reverse transcription reaction was conducted at 37° C. for 120 minutes, and the RNAs were amplified by 20 cycles of PCR (RT-PCR (Reverse transcription-polymerase chain reaction) method). Specifically, 2.5 μg of total RNAs was subjected to reverse transcription in a buffer solution comprising oligo dT primer, 1.3 mM dNTP (deoxynucleoside triphosphates, GIBCO BRL, Grand Island, N.Y.), 10 mM DTT (dithiothreitol, GIBCO BRL), and 200 U of RNase inhibitor (GIBCO BRL) using 200 U of Moloney murine leukemia virus reverse transcriptase (GIBCO BRL) at 37° C. for 120 minutes, then allowed to stand at 94° C. for 2 minutes, and the reaction was terminated. The thus-generated cDNAs were amplified in a 0.01% Tween 20/0.2 mM dNTP/2 mM MgCl2/75 mM Tris buffer (pH 8.8) containing 1 μM 5′-primer([…]) and 3′-primer([…]), using 1.5 U of Taq DNA polymerase (MBI Fermentas, Lithuania) by repeating 20 cycles of PCR (each cycle comprised a denaturation step at 94° C. for 30 seconds, an annealing step. at 58° C. for 30 seconds, and an extension reaction step at 72° C. for 30 seconds), and then allowed to stand at 72° C. for 10 minutes.
The RT-PCR product (502 bp) was applied to a 1% agarose gel with DNA size markers, and subjected to electrophoresis in a Tris-Acetate-EDTA buffer at 100 V for about 30 minutes. After conducting electrophoresis, the gel was dipped in an ethidium bromide solution, shaken for 15 minutes, and then stained. Subsequently, the fluorescence intensity of the gel was measured using a gel analysis program (ATTO Lane Analyzer 10H Software Densitograph provided by Atto Corporation).
Note that, in FIG. 1, the control is epididymis adipose cells to which only DMSO was added.

Row | Compound | mRNA level (100 μM) | mRNA level (250 μM) | adiponectin mRNA level in adipose tissue (result in words)
1 | OCC1OC(Oc2cc3c(O)cc(O)cc3[o+]c2-c2ccc(O)c(O)c2)C(O)C(O)C1O [Cyanidin 3-glucoside, cyanidin 3-O-β-D-glucoside] | 2.7 | 2.1 | increased adiponectin mRNA level
2 | Oc1cc(O)c2cc(O)c(-c3ccc(O)c(O)c3)[o+]c2c1 [Cyanidin, cyanidin] | 2.1 | 2.2 | increased adiponectin mRNA level
